We go through 34 compounds from ChEMBL document CHEMBL5380810, “Scaffold Hybrid of the Natural Product Tanshinone I with Piperidine for the Discovery of a Potent NLRP3 Inflammasome Inhibitor” (J Med Chem, 2023).

The structures appear in SMILES notation. pIC50: −log10 of the molar value. The source made the active and inactive calls. No cut-off for these calls is given here.

Data set [1] concerns Peritoneal macrophage. The experiment in a line: Antiinflammatory activity against LPS-stimulated mouse peritoneal macrophage assessed as IL-6 level at 2 uM treated for 3 hrs followed by ATP addition measured after 30 mins by ELISA method relative to control. The class given is functional. Particulars: time 3.5 hrs.
In data set [2] the test system is Peritoneal macrophage. The experiment in a line: Antiinflammatory activity against LPS-stimulated mouse peritoneal macrophage assessed as inhibition of IL-1beta secretion treated for 3 hrs followed by ATP addition measured after 30 mins by ELISA method. Type of data set: functional, cell-based. In general terms: An ELISA detects its analyte on a solid surface through an enzyme-linked reagent.

Data set [3] relates to Peritoneal macrophage. The experiment in a line: Cytotoxicity against mouse peritoneal macrophages at 4 uM incubated for 3.5 hrs by MTT assay. Type of data set: toxicity, cell-based. Background: Formazan colour is commonly taken as a measure of viable cells.
Data set [4] has as its system Peritoneal macrophage. The experiment in a line: Antiinflammatory activity against LPS-stimulated mouse peritoneal macrophage assessed as TNF-alpha level at 2 uM treated for 3 hrs followed by ATP addition measured after 30 mins by ELISA method relative to control. Particulars: time 3.5 hrs. Type of data set: functional.
Data set [5] concerns Peritoneal macrophage. The experiment in a line: Antiinflammatory activity against LPS-stimulated mouse peritoneal macrophage assessed as IL-1beta level at 2 uM treated for 3 hrs followed by ATP addition measured after 30 mins by ELISA method relative to control. The class given is functional. Particulars: time 3.5 hrs.
For data set [6], the system named is Peritoneal macrophage. The experiment in a line: Antiinflammatory activity against LPS-stimulated mouse peritoneal macrophage assessed as IL-6 level at 2 uM treated for 3 hrs followed by ATP addition measured after 30 mins by ELISA method. Type of data set: functional, cell-based. Particulars: time 3.5 hrs.
The nature of data set [7]: Aqueous solubility of compound incubated for 24 hrs by HPLC analysis. Type of data set: physicochemical. Particulars: buffer.

What is called pIC50 is the negative decadic logarithm of the IC50, by convention in mol/L. For the compound `Cc1cccc2c3c(ccc12)-c1oc2c(c1C(=O)C3=O)CCN(CC(=O)N1CCOCC1)C2`, the Activity with Peritoneal macrophage [1] was 24%; in the data set on Peritoneal macrophage [3], “Non-Toxic”; in the data set with Peritoneal macrophage [4], 36%; with Peritoneal macrophage [5], 96%. The pIC50 in the data set on Peritoneal macrophage [2] was 6.43.
Turning to `Cc1cccc2c3c(ccc12)-c1oc2c(c1C(=O)C3=O)CCN(CC(=O)N(C)C)C2`, the Activity is 11% in the data set on Peritoneal macrophage [1], “Non-Toxic” with Peritoneal macrophage [3], 52% in the data set with Peritoneal macrophage [4] and 71% in the data set with Peritoneal macrophage [5].
For `COC(=O)CCCN1CCc2c(oc3c2C(=O)C(=O)c2c-3ccc3c(C)cccc23)C1`, the Activity in the data set with Peritoneal macrophage [1] is recorded as 32%; in the data set on Peritoneal macrophage [3], “Non-Toxic”; in the data set with Peritoneal macrophage [4], 43%; in the data set on Peritoneal macrophage [5] it was 67%.
Turning to `CNC(=O)[C@H](C)N1CCc2c(oc3c2C(=O)C(=O)c2c-3ccc3c(C)cccc23)C1`, the outcome with Peritoneal macrophage [6] was inactive. Besides, the Activity entry in the data set with Peritoneal macrophage [3] was “Non-Toxic”; in the data set on Peritoneal macrophage [4], 31%; in the data set on Peritoneal macrophage [5] it was 96%.
Turning to `Cc1cccc2c3c(ccc12)-c1oc2c(c1C(=O)C3=O)CCN([C@@H](C)C(=O)N1CCOCC1)C2`, the pIC50 in the data set on Peritoneal macrophage [2] is 5.53. In the data set on Peritoneal macrophage [6], the outcome was inactive. For the same compound, the Activity entry in the data set on Peritoneal macrophage [3] is reported as “Non-Toxic”; in the data set with Peritoneal macrophage [4] it was 52%; in the data set on Peritoneal macrophage [5] it was 98%.
Broadly, the solubility is the dissolved amount per volume that the medium holds. Lower therefore signals little dissolved substance. The compound `Cc1cccc2c3c(ccc12)-c1oc2c(c1C(=O)C3=O)CCN(CCO)C2.Cl` registered a solubility in data set [7] of 2.45 µg/mL. The values for the Activity result in the data set with Peritoneal macrophage [3], in the data set with Peritoneal macrophage [4] and with Peritoneal macrophage [5] were “Non-Toxic”, 22% and 99%, respectively.
On to `COC(=O)CN1CCc2c(oc3c2C(=O)C(=O)c2c-3ccc3c(C)cccc23)C1`, for which the Activity is recorded as 6% in the data set on Peritoneal macrophage [1], “Non-Toxic” with Peritoneal macrophage [3], 31% in the data set with Peritoneal macrophage [4] and 70% in the data set with Peritoneal macrophage [5].
`Cc1cccc2c3c(ccc12)-c1oc2c(c1C(=O)C3=O)CCN([C@H](CO)CCCO)C2.Cl`: the Activity in the data set on Peritoneal macrophage [1] was 6%; in the data set with Peritoneal macrophage [3] it was “Non-Toxic”; in the data set on Peritoneal macrophage [4] it was 16%; in the data set with Peritoneal macrophage [5], 96%. In data set [7], the solubility was determined as 6.34 µg/mL.
Consider `Cc1cccc2c3c(ccc12)-c1oc2c(c1C(=O)C3=O)CCN(CCCn1ccnc1)C2`, for which the result in the data set with Peritoneal macrophage [6] was inactive. In addition, the results for the Activity result with Peritoneal macrophage [3], with Peritoneal macrophage [4] and in the data set on Peritoneal macrophage [5] were “Non-Toxic”, 17% and 95%, respectively.
Turning to `COC(=O)CCN1CCc2c(oc3c2C(=O)C(=O)c2c-3ccc3c(C)cccc23)C1`, the Activity in the data set with Peritoneal macrophage [1] is 34%; in the data set on Peritoneal macrophage [3], “Non-Toxic”; in the data set on Peritoneal macrophage [4] it was 46%; in the data set on Peritoneal macrophage [5] it was 87%.
In the case of `Cc1cccc2c3c(ccc12)-c1oc2c(c1C(=O)C3=O)CCN([C@H](CO)Cc1ccccc1)C2`, the Activity was 9% with Peritoneal macrophage [1], “Non-Toxic” with Peritoneal macrophage [3], 45% in the data set on Peritoneal macrophage [4] and 56% with Peritoneal macrophage [5].
Consider `Cc1cccc2c3c(ccc12)-c1oc2c(c1C(=O)C3=O)CCN(CCCN1CCN(C)CC1)C2`, for which the result in the data set with Peritoneal macrophage [6] was inactive. Moreover, the Activity entry in the data set on Peritoneal macrophage [3] is listed as “Non-Toxic”; with Peritoneal macrophage [4], 51%; in the data set with Peritoneal macrophage [5], 95%.
With `Cc1cccc2c3c(ccc12)-c1oc2c(c1C(=O)C3=O)CCN(CCN1CCOCC1)C2`, the pIC50 in the data set on Peritoneal macrophage [2] was 6.56. The outcome in the data set on Peritoneal macrophage [6] was inactive. Moreover, the values for the Activity result in the data set on Peritoneal macrophage [3], in the data set on Peritoneal macrophage [4] and with Peritoneal macrophage [5] were “Non-Toxic”, 26% and 99%, respectively.
As to `Cc1cccc2c3c(ccc12)-c1oc2c(c1C(=O)C3=O)CCN(CCCN1CCCC1)C2`, the Activity in the data set with Peritoneal macrophage [1] is 31%; with Peritoneal macrophage [3], “Non-Toxic”; in the data set on Peritoneal macrophage [4] it was 13%; in the data set with Peritoneal macrophage [5] it was 94%.
Take `Cc1cccc2c3c(ccc12)-c1oc2c(c1C(=O)C3=O)CCN([C@@H](C)CO)C2`: in the data set on Peritoneal macrophage [6], the outcome was inactive. For the same compound, the Activity result with Peritoneal macrophage [3] is reported as “Non-Toxic”; in the data set on Peritoneal macrophage [4] it was 40%; with Peritoneal macrophage [5], 49%.
The corresponding values for `Cc1cccc2c3c(ccc12)-c1oc2c(c1C(=O)C3=O)CCN(CCn1ccnc1)C2` are “inactive”, “Non-Toxic”, 29% and 96%.
Taken in the same sequence, the figures for `COC(=O)[C@H](Cc1ccccc1)N1CCc2c(oc3c2C(=O)C(=O)c2c-3ccc3c(C)cccc23)C1` were “inactive”, “Non-Toxic”, 24% and 23%.
Taken in the same sequence, the figures for `Cc1cccc2c3c(ccc12)-c1oc2c(c1C(=O)C3=O)CCN(CCCN1CCC(N3CCOCC3)CC1)C2` were “inactive”, “Non-Toxic”, 40% and 88%.
`COC(=O)[C@H](C)N1CCc2c(oc3c2C(=O)C(=O)c2c-3ccc3c(C)cccc23)C1`: the outcome in the data set on Peritoneal macrophage [6] was inactive. In addition, the Activity result is “Non-Toxic” in the data set on Peritoneal macrophage [3], 25% with Peritoneal macrophage [4] and 65% with Peritoneal macrophage [5].
As to `CNC(=O)CN1CCc2c(oc3c2C(=O)C(=O)c2c-3ccc3c(C)cccc23)C1`, the Activity in the data set with Peritoneal macrophage [1] is recorded as 19%; in the data set on Peritoneal macrophage [3], “Non-Toxic”; in the data set with Peritoneal macrophage [4] it was 36%; with Peritoneal macrophage [5], 92%.
Regarding `Cc1cccc2c3c(ccc12)-c1oc2c(c1C(=O)C3=O)CCN(CCC(=O)N1CCOCC1)C2`, the outcome in the data set with Peritoneal macrophage [6] was inactive. Also, the Activity entry in the data set on Peritoneal macrophage [3] is given as “Non-Toxic”; with Peritoneal macrophage [4] it was 10%; in the data set on Peritoneal macrophage [5] it was 92%.
The corresponding values for `Cc1cccc2c3c(ccc12)-c1oc2c(c1C(=O)C3=O)CCN(CC(=O)N1CCN(C)CC1)C2` are “inactive”, “Non-Toxic”, 35% and 77%.
Regarding `COC(=O)CC[C@@H](C(=O)OC)N1CCc2c(oc3c2C(=O)C(=O)c2c-3ccc3c(C)cccc23)C1`, the Activity is recorded as 41% in the data set on Peritoneal macrophage [1], “Non-Toxic” in the data set on Peritoneal macrophage [3], 58% in the data set on Peritoneal macrophage [4] and 65% in the data set on Peritoneal macrophage [5].
Consider `CCCCN1CCc2c(oc3c2C(=O)C(=O)c2c-3ccc3c(C)cccc23)C1`, for which the outcome in the data set with Peritoneal macrophage [6] was inactive. In addition, the Activity result is reported as “Non-Toxic” in the data set on Peritoneal macrophage [3], 14% in the data set with Peritoneal macrophage [4] and 38% with Peritoneal macrophage [5].
Regarding `Cc1cccc2c3c(ccc12)-c1oc2c(c1C(=O)C3=O)CCN(CCN1CCN(C)CC1)C2`, the result in the data set with Peritoneal macrophage [6] was inactive. The Activity entry with Peritoneal macrophage [3] is recorded as “Non-Toxic”; in the data set on Peritoneal macrophage [4], 19%; with Peritoneal macrophage [5], 61%.
As to `Cc1cccc2c3c(ccc12)-c1oc2c(c1C(=O)C3=O)CCN(C)C2`, the Activity is recorded as 18% in the data set on Peritoneal macrophage [1], “Non-Toxic” in the data set with Peritoneal macrophage [3], 16% with Peritoneal macrophage [4] and 40% with Peritoneal macrophage [5].
Taken in the same sequence, the figures for `Cc1cccc2c3c(ccc12)-c1oc2c(c1C(=O)C3=O)CCN(CCN(C)C)C2` were 3%, “Non-Toxic”, 20% and 88%.
On to `Cc1cccc2c3c(ccc12)-c1oc2c(c1C(=O)C3=O)CCN([C@@H](C)C(=O)N1CCN(C)CC1)C2`, for which the pIC50 in the data set on Peritoneal macrophage [2] is 6.42. Moreover, the outcome in the data set on Peritoneal macrophage [6] was inactive. The Activity entry in the data set on Peritoneal macrophage [3] was “Non-Toxic”; in the data set with Peritoneal macrophage [4] it was 33%; in the data set with Peritoneal macrophage [5], 97%.
With `Cc1cccc2c3c(ccc12)-c1oc2c(c1C(=O)C3=O)CCN(CCS(C)(=O)=O)C2`, the outcome in the data set with Peritoneal macrophage [6] was inactive. In addition, the Activity result is given as “Non-Toxic” in the data set on Peritoneal macrophage [3], 46% in the data set with Peritoneal macrophage [4] and 90% with Peritoneal macrophage [5].
On to `Cc1cccc2c3c(ccc12)-c1oc2c(c1C(=O)C3=O)CCN(CCCN1CCOCC1)C2.Cl`, for which the Activity is given as 12% with Peritoneal macrophage [1], “Non-Toxic” in the data set with Peritoneal macrophage [3], 24% with Peritoneal macrophage [4] and 91% in the data set with Peritoneal macrophage [5]. This compound also returned a solubility in data set [7] of 11.89 µg/mL.
Regarding `CC(C)(O)c1coc(S(=O)(=O)NC(=O)Nc2c3c(cc4c2CCC4)CCC3)c1`, the outcome with Peritoneal macrophage [6] was inactive. The values for the Activity with Peritoneal macrophage [4] and in the data set with Peritoneal macrophage [5] were 12% and 98%, respectively.
For the compound `Cc1cccc2c3c(ccc12)-c1oc2c(c1C(=O)C3=O)CCN(CCCN(C)C)C2`, the Activity with Peritoneal macrophage [1] is given as 8%; in the data set with Peritoneal macrophage [3], “Non-Toxic”; in the data set on Peritoneal macrophage [4], 19%; in the data set on Peritoneal macrophage [5], 95%.
Consider `Cc1cccc2c3c(ccc12)-c1oc2c(c1C(=O)C3=O)CCNC2`, for which the Activity with Peritoneal macrophage [1] was 13%; in the data set on Peritoneal macrophage [3], “Non-Toxic”; in the data set with Peritoneal macrophage [4], 22%; with Peritoneal macrophage [5], 16%.
In the case of `Cc1cccc2c3c(ccc12)-c1oc2c(c1C(=O)C3=O)CCN(CCCN1CC[C@@H](O)C1)C2`, the outcome in the data set with Peritoneal macrophage [6] was inactive. Further, the Activity result with Peritoneal macrophage [3] is reported as “Non-Toxic”; in the data set on Peritoneal macrophage [4] it was 33%; with Peritoneal macrophage [5] it was 92%.
